Test results reported in PMC7464503, “Antioxidant and Antibacterial Properties of Carbosilane Dendrimers Functionalized with Polyphenolic Moieties” (Pharmaceutics, 2020).
Values after ≈ are worked out from the molar mass of the structure shown.

Assays:
[1] = Cyclic voltammetry, electrochemical characterization of the antioxidant capacity; assay type: physicochemical; conditions: for Ep (peak potential) / Ip (peak intensity) / ΔEp (difference between anodic and cathodic peak): glassy carbon electrode, ± SD of three measurements; for Ep (peak potential): 20 mM acetate buffer pH 3.6, vs Ag|AgCl|KCl (3M); for Ip (peak intensity) / ΔEp (difference between anodic and cathodic peak): 20 mM acetate buffer pH 3.6
Protocol: Electrochemical measurements were carried out on an Autolab PGSTAT 12 potentiostat from Metrohm (Utrecht, The Netherlands), employing a glassy carbon (GC) disk working electrode. The GC electrode was polished after each measurement using a 0.1 and 0.05 µm alumina/water slurry until a shiny mirror-like finish was achieved, and washed with ultrapure water. Electrodes were modified with 1 mM solutions of each compound (L, G1, and G2) in MeOH; 5 µL drops were drop-cast in the electrode and allowed to dry before the measurements. Electrochemical measurements were performed in a 20 mM acetate buffer solution (pH 3.6), employing an Ag|AgCl|KCl (3M) reference electrode and a platinum wire as a counterelectrode.
Electrochemical characterization of the antioxidant capacity: The electrochemical behavior of the synthesized polyphenolic dendrimers (1–6), together with the free polyphenol (L), has been investigated using cyclic voltammetry (CV). CV is a powerful electrochemical technique that can be employed to study the ability of a molecule to undergo electron transfer and to estimate the antioxidant activity through the peak potential (Ep), intensity (ip), and reversibility (ΔEp). A lowering in the Ep or ΔEp and an increase in the ip are indicative of higher antioxidant activity.

[2] = tested on: Staphylococcus aureus (CECT 240); test: In vitro antibacterial activity (ISO 20776-1:2006), turbidity at 625 nm; assay type: cell-based; conditions: CECT240, S. aureus, 24 h at 37 °C, 1% DMSO, tested up to 16 ppm; for IC50: read-out: MIC50; for IC80: read-out: MIC80
Protocol: (§1) In vitro antibacterial analysis of dendritic polyphenols was performed following the international standard method ISO 20776-1:2006 [22]. The antibacterial activity was assayed in two different bacteria, Escherichia coli (CECT 515) and Staphylococcus aureus (CECT 240), both obtained from the Spanish Type Culture Collection in lyophilized form. The biocide solutions were prepared following the EUCAST (European Committee for Antimicrobial Susceptibility Testing) protocol for hydrophobic compounds. For this purpose, stock solutions in DMSO of each compound were made and then, subsequent dilutions in Mueller-Hinton […] (Scharlau, ref. 02–136) were developed to obtain the testing concentrations (from 0.0312 ppm to 16 ppm) with 1% of DMSO. The assay was carried out in 96-well plates, with two different wells for each concentration and with different controls (biocide, inoculum, culture medium, and DMSO). The bacteria were inoculated at a concentration of 10^5 CFU/mL in wells. After 24 h of incubation with biocides at 37 °C, the increase of turbidity at 625 nm was determined using an Ultra Microplate reader (BIO-TECK Instruments, model ELx808). MIC50 and MIC80 values were the concentrations of the compounds with an optical density of 50% and 20% compared to nontreated bacteria.

[3] = tested on: Escherichia coli (CECT 515); test: as above; assay type: cell-based; conditions: CECT515, E. coli, 24 h at 37 °C, 1% DMSO, tested up to 16 ppm, read-out: MIC50
Protocol: as §1

[4] = DPPH free radical-scavenging assay; conditions: stated as the same activity as the cited polyether dendrimers
Protocol: This method involves the radical concentration reduction by the antioxidant agent, which entails absorbance reduction and increasing compound concentration. When antioxidants are mixed with DPPH solution, the color turns from purple to yellow, with the maximum absorption at 530 nm. The ability of dendritic polyphenols to scavenge the DPPH radical was evaluated. An aliquot of 100 µL of different stock sample concentrations in the range of 0.01 and 100 µM in methanol was added to a volume of 900 µL of a DPPH stock solution (0.12 mM) in a DMSO/H2O (1:1) mixture. The mixture was shaken, kept in the dark at room temperature, and recorded at 530 nm every 5 min up to 30 min. The blank was constituted by methanol instead of the sample.
The IC50 of DPPH scavenging activity and EC50 of FRAP capacities were calculated following similar protocols. Firstly, for each concentration, it was necessary to calculate the DPPH remnant, as well as the Fe(II) that formed, through the following equations: 1. DPPHREM(%)=(As/Ac)×100 2. Fe(II)FOR(%)=(As−Ac/Ac)×100 where REM = remnant, FOR = formed, As = Sample absorbance, and Ac = Control absorbance. The graphical representation of the percentage of the remnant or formed reagent versus the −log[X] […] The results are expressed as mean ± SEM and are representative of at least three independent experiments.

[5] = Cell viability by MTT assay; assay type: cell-based, human; conditions: human; for viability at 24 h, 8 ppm: HFF-1, 8 ppm; for viability at 24 h, 16 ppm: HFF-1, 16 ppm
Protocol: (§2) HFF-1 cells were grown routinely in DMEM (Dulbecco’s modified Eagle’s medium, Sigma Aldrich, St. Louis, MO, USA, ref. D6429) supplemented with 10% fetal bovine serum (FBS, Sigma Aldrich, ref. F7524) and 1% penicillin/streptomycin/amphotericin B (Sigma Aldrich, ref. A5955) at 37 °C and 5% CO2. Cells were seeded in 96-well plates (Nunclon Delta Surface, Thermo Fischer Scientific, Waltham, MA, USA; 8 × 10^3 cells per well) and grown in a complete DMEM medium for 24 h. Cell viability was determined by MTT assay (MTT, 3-(4,5-dimethyl-2-thiazolyl)-2,5-diphenyl-2H-tetrazolium bromide). A stock compound solution was prepared in DMSO. Then, dilutions in cell culture were made to obtain the final concentrations with 1% of DMSO per well. […] After incubation, MTT was added at a concentration of 5 mg/mL and plates were incubated for 3 h. Finally, the culture medium was removed and the purple formazan crystals formed by the mitochondrial dehydrogenase and reductase activity of vital cells were dissolved in DMSO. The optical density, directly proportional to the number of surviving cells, was quantified at 570/630 nm in a spectrophotometer BioTEK 800 (Izasa). The assay was carried out in triplicate, with eight different wells for each concentration and with different controls (culture medium and DMSO).

[6] = tested on: HFF-1 cells; test: Cell viability by MTT assay; assay type: cell-based, human; conditions: HFF-1, 16 ppm, 24 h
Protocol: as §2

[7] = G2 compared to free polyphenol L

SMILES	Ep (peak potential) [1] [V]	Ip (peak intensity) [1] [µA]	IC50 [2] [µg/mL]	IC80 [2] [µg/mL]	IC50 [3] [µg/mL]	ΔEp (difference between anodic and cathodic peak) [1] [V]	IC50 [4] [µM]	viability at 24 h, 8 ppm [5] [%]	viability at 24 h, 16 ppm [5] [%]	decrease in ΔEp compared to L [1, 7] [mV]	% Viability [6] [%]	decrease in the Ep compared to L [1, 7] [mV]	viability at 24 h, 4 ppm ([5]; HFF-1, 4 ppm) [%]
O=C(O)c1cc(O)c(O)c(O)c1 [Gallic L, 3,4,5-trihydroxybenzoic acid, reference compound]	0.477 ± 0.001	3.87 ± 0.08	> 16	> 16	> 16								
C[Si](C)(CCCNC(=O)/C=C/c1ccc(O)c(O)c1)CCC[Si](CCC[Si](C)(C)CCCNC(=O)/C=C/c1ccc(O)c(O)c1)(CCC[Si](C)(C)CCCNC(=O)/C=C/c1ccc(O)c(O)c1)CCC[Si](C)(C)CCCNC(=O)/C=C/c1ccc(O)c(O)c1 [G1 (2), G1-[Si(CH2)3NH(CO)CH=CHCH2Ph(OH)2)]4]	0.276 ± 0.009	1.39 ± 0.04	8 (≈ 6.11 µM)	16 (≈ 12.2 µM)	> 16	0.188 ± 0.006	~5	98.8 ± 1.7	100				
C[Si](C)(CCCNC(=O)/C=C/c1ccc(O)c(O)c1)CCC[Si](C)(CCC[Si](C)(C)CCCNC(=O)/C=C/c1ccc(O)c(O)c1)CCC[Si](CCC[Si](C)(CCC[Si](C)(C)CCCNC(=O)/C=C/c1ccc(O)c(O)c1)CCC[Si](C)(C)CCCNC(=O)/C=C/c1ccc(O)c(O)c1)(CCC[Si](C)(CCC[Si](C)(C)CCCNC(=O)/C=C/c1ccc(O)c(O)c1)CCC[Si](C)(C)CCCNC(=O)/C=C/c1ccc(O)c(O)c1)CCC[Si](C)(CCC[Si](C)(C)CCCNC(=O)/C=C/c1ccc(O)c(O)c1)CCC[Si](C)(C)CCCNC(=O)/C=C/c1ccc(O)c(O)c1 [G2 (5), G2-[Si(CH2)3NH(CO)CH=CHCH2Ph(OH)2)]8]	0.302 ± 0.010	0.143 ± 0.09	> 16	> 16	> 16	0.120 ± 0.009				85	100.0 ± 0.0		
COc1cc(/C=C/C(=O)NCCC[Si](C)(C)CCC[Si](C)(CCC[Si](C)(C)CCCNC(=O)/C=C/c2ccc(O)c(OC)c2)CCC[Si](CCC[Si](C)(CCC[Si](C)(C)CCCNC(=O)/C=C/c2ccc(O)c(OC)c2)CCC[Si](C)(C)CCCNC(=O)/C=C/c2ccc(O)c(OC)c2)(CCC[Si](C)(CCC[Si](C)(C)CCCNC(=O)/C=C/c2ccc(O)c(OC)c2)CCC[Si](C)(C)CCCNC(=O)/C=C/c2ccc(O)c(OC)c2)CCC[Si](C)(CCC[Si](C)(C)CCCNC(=O)/C=C/c2ccc(O)c(OC)c2)CCC[Si](C)(C)CCCNC(=O)/C=C/c2ccc(O)c(OC)c2)ccc1O [G2 (4), G2-[Si(CH2)3NH(CO)CH=CHCH2Ph(OH)(OCH3))]8]	0.613 ± 0.008	0.56 ± 0.02	> 16	> 16	> 16						92.9 ± 7.4	73	
COc1cc(C=CC(=O)O)ccc1O [Ferulic L, 3-(4-hydroxy-3-methoxyphenyl)-2-propenoic acid, reference compound]	0.686 ± 0.009	3.70 ± 0.08	> 16	> 16	> 16								
C[Si](C)(CCCNC(=O)c1cc(O)c(O)c(O)c1)CCC[Si](CCC[Si](C)(C)CCCNC(=O)c1cc(O)c(O)c(O)c1)(CCC[Si](C)(C)CCCNC(=O)c1cc(O)c(O)c(O)c1)CCC[Si](C)(C)CCCNC(=O)c1cc(O)c(O)c(O)c1 [G1 (3), G1-[Si(CH2)3NH(CO)Ph(OH)3]4]	0.410 ± 0.008	4.12 ± 0.07	4 (≈ 3.15 µM)	8 (≈ 6.3 µM)	16 (≈ 12.6 µM)			99.1 ± 1					84.8 ± 7.5
COc1cc(/C=C/C(=O)NCCC[Si](C)(C)CCC[Si](CCC[Si](C)(C)CCCNC(=O)/C=C/c2ccc(O)c(OC)c2)(CCC[Si](C)(C)CCCNC(=O)/C=C/c2ccc(O)c(OC)c2)CCC[Si](C)(C)CCCNC(=O)/C=C/c2ccc(O)c(OC)c2)ccc1O [G1 (1), G1-[Si(CH2)3NH(CO)CH=CHCH2Ph(OH)(OCH3))]4]	0.637 ± 0.002	0.75 ± 0.06	> 16	> 16	> 16				95.4 ± 6.6				
O=C(O)/C=C/c1ccc(O)c(O)c1 [Caffeic L, reference compound]	0.263 ± 0.005	2.91 ± 0.07	> 16	> 16	> 16	0.205 ± 0.002							
